Measured values taken from PubChem BioAssay AID2060611 (Molecular Pharmacology Branch, DTP, NCI, 2025).
Blank lines part the entries; values can stand above or below the compound they belong to.

Test system: 628569-122-R-J1-PDC complex spheroid viability
Test: Anticancer human tumor 628569-122-R-J1-PDC patient-derived head and neck squamous carcinoma cell line growth inhibition [CLK]
Settings: for IC50: curve of first compound; for viability, T/C: stronger effect = lower value
In short: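 Patient-derived tumor cells grown as complex spheroids with HUVEC endothelial cells and mesenchymal stem cells, treated with drug combinations. Concentrations descend in half-log steps from near clinical Cmax, or from 10 microM if Cmax unknown.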

[1] = second compound 0.0316 µM, first compound 0.0316 µM
[2] = second compound 0.0316 µM, first compound 0.1 µM
[3] = second compound 0.0316 µM, first compound 0.316 µM
[4] = second compound 0.0316 µM, first compound 1 µM
[5] = second compound 0.0316 µM, first compound 3.16 µM
[6] = second compound 0.0316 µM, first compound 10 µM
[7] = second compound 0.1 µM, first compound 0.0316 µM
[8] = second compound 0.1 µM, first compound 0.1 µM
[9] = second compound 0.1 µM, first compound 0.316 µM
[10] = second compound 0.1 µM, first compound 1 µM
[11] = second compound 0.1 µM, first compound 3.16 µM
[12] = second compound 0.1 µM, first compound 10 µM
[13] = second compound 0.316 µM, first compound 0.0316 µM
[14] = second compound 0.316 µM, first compound 0.1 µM
[15] = second compound 0.316 µM, first compound 0.316 µM
[16] = second compound 0.316 µM, first compound 1 µM
[17] = second compound 0.316 µM, first compound 3.16 µM
[18] = second compound 0.316 µM, first compound 10 µM
[19] = second compound 1 µM, first compound 0.0316 µM
[20] = second compound 1 µM, first compound 0.1 µM
[21] = second compound 1 µM, first compound 0.316 µM
[22] = second compound 1 µM, first compound 1 µM
[23] = second compound 1 µM, first compound 3.16 µM
[24] = second compound 1 µM, first compound 10 µM
[25] = second compound 3.16 µM, first compound 0.0316 µM
[26] = second compound 3.16 µM, first compound 0.1 µM
[27] = second compound 3.16 µM, first compound 0.316 µM
[28] = second compound 3.16 µM, first compound 1 µM
[29] = second compound 3.16 µM, first compound 3.16 µM
[30] = second compound 3.16 µM, first compound 10 µM
[31] = second compound 10 µM, first compound 0.0316 µM
[32] = second compound 10 µM, first compound 0.1 µM
[33] = second compound 10 µM, first compound 0.316 µM
[34] = second compound 10 µM, first compound 1 µM
[35] = second compound 10 µM, first compound 3.16 µM
[36] = second compound 10 µM, first compound 10 µM
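Further: spheroids exposed to agents for seven days before readout.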
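Wherever viability, T/C is given: 100% = DMSO vehicle control viability.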

Structure (SMILES): NC(=O)C(=Cn1cnc(-c2cc(C(F)(F)F)cc(C(F)(F)F)c2)n1)c1cncnc1 + CN1CCN(c2cc(C(=O)Nc3cc4cc(-c5cnn(C)c5)ccc4cn3)ccn2)CC1
IC50 (second compound 0.0316 µM): 681 nM
IC50 (second compound 0.1 µM): 28.5 nM
IC50 (second compound 0.316 µM): < 9.49 nM
IC50 (second compound 1 µM): < 9.49 nM
IC50 (second compound 3.16 µM): < 9.49 nM
IC50 (second compound 10 µM): < 9.49 nM
viability, T/C (second compound 0.0316 µM, first compound 0.00949 µM): 79.3%
viability, T/C (second compound 0.0316 µM, first compound 0.03 µM): 67.5%
viability, T/C (second compound 0.0316 µM, first compound 0.0949 µM): 76%
viability, T/C (second compound 0.0316 µM, first compound 0.3 µM): 76.1%
viability, T/C (second compound 0.0316 µM, first compound 0.949 µM): 38.1%
viability, T/C (second compound 0.0316 µM, first compound 3 µM): 41.8%
viability, T/C (second compound 0.1 µM, first compound 0.00949 µM): 47.6%
viability, T/C (second compound 0.1 µM, first compound 0.03 µM): 53%
viability, T/C (second compound 0.1 µM, first compound 0.0949 µM): 47.4%
viability, T/C (second compound 0.1 µM, first compound 0.3 µM): 35%
viability, T/C (second compound 0.1 µM, first compound 0.949 µM): 22.3%
viability, T/C (second compound 0.1 µM, first compound 3 µM): 13.7%
viability, T/C (second compound 0.316 µM, first compound 0.00949 µM): 31.6%
viability, T/C (second compound 0.316 µM, first compound 0.03 µM): 22.2%
viability, T/C (second compound 0.316 µM, first compound 0.0949 µM): 8.26%
viability, T/C (second compound 0.316 µM, first compound 0.3 µM): 6.76%
viability, T/C (second compound 0.316 µM, first compound 0.949 µM): 4.81%
viability, T/C (second compound 0.316 µM, first compound 3 µM): 2.61%
viability, T/C (second compound 1 µM, first compound 0.00949 µM): 8.6%
viability, T/C (second compound 1 µM, first compound 0.03 µM): 7.83%
viability, T/C (second compound 1 µM, first compound 0.0949 µM): 5.77%
viability, T/C (second compound 1 µM, first compound 0.3 µM): 4.21%
viability, T/C (second compound 1 µM, first compound 0.949 µM): 5.37%
viability, T/C (second compound 1 µM, first compound 3 µM): 1.7%
viability, T/C (second compound 3.16 µM, first compound 0.00949 µM): 6.02%
viability, T/C (second compound 3.16 µM, first compound 0.03 µM): 7.42%
viability, T/C (second compound 3.16 µM, first compound 0.0949 µM): 10.8%
viability, T/C (second compound 3.16 µM, first compound 0.3 µM): 16.6%
viability, T/C (second compound 3.16 µM, first compound 0.949 µM): 4.54%
viability, T/C (second compound 3.16 µM, first compound 3 µM): 1.65%
viability, T/C (second compound 10 µM, first compound 0.00949 µM): 4.54%
viability, T/C (second compound 10 µM, first compound 0.03 µM): 4.5%
viability, T/C (second compound 10 µM, first compound 0.0949 µM): 6.08%
viability, T/C (second compound 10 µM, first compound 0.3 µM): 5.71%
viability, T/C (second compound 10 µM, first compound 0.949 µM): 1.68%
viability, T/C (second compound 10 µM, first compound 3 µM): 1.21%

Structure (SMILES): C=CC(=O)N1CCN(c2nc(=O)n(-c3c(C)ccnc3C(C)C)c3nc(-c4c(O)cccc4F)c(F)cc23)C(C)C1 (stereo not drawn) + CN1CCN(c2cc(C(=O)Nc3cc4cc(-c5cnn(C)c5)ccc4cn3)ccn2)CC1
IC50 (second compound 0.0316 µM): > 10000 nM
IC50 (second compound 0.1 µM): > 10000 nM
IC50 (second compound 0.316 µM): < 31.6 nM
IC50 (second compound 1 µM): < 31.6 nM
IC50 (second compound 3.16 µM): < 31.6 nM
IC50 (second compound 10 µM): < 31.6 nM
viability, T/C [1]: 104%
viability, T/C [2]: 89.4%
viability, T/C [3]: 110%
viability, T/C [4]: 113%
viability, T/C [5]: 132%
viability, T/C [6]: 140%
viability, T/C [7]: 51.7%
viability, T/C [8]: 65.7%
viability, T/C [9]: 77.1%
viability, T/C [10]: 81.3%
viability, T/C [11]: 86.2%
viability, T/C [12]: 71.4%
viability, T/C [13]: 32.5%
viability, T/C [14]: 38.2%
viability, T/C [15]: 41.5%
viability, T/C [16]: 37.5%
viability, T/C [17]: 51%
viability, T/C [18]: 31.4%
viability, T/C [19]: 6.64%
viability, T/C [20]: 5.37%
viability, T/C [21]: 5.91%
viability, T/C [22]: 5.6%
viability, T/C [23]: 8.96%
viability, T/C [24]: 6.5%
viability, T/C [25]: 9.3%
viability, T/C [26]: 9.76%
viability, T/C [27]: 6.13%
viability, T/C [28]: 4.78%
viability, T/C [29]: 5.85%
viability, T/C [30]: 4.66%
viability, T/C [31]: 2.59%
viability, T/C [32]: 1.73%
viability, T/C [33]: 2.2%
viability, T/C [34]: 1.51%
viability, T/C [35]: 4.91%
viability, T/C [36]: 3.2%

IC50 (second compound 0.0316 µM): 930 nM
IC50 (second compound 0.1 µM): 2970 nM
IC50 (second compound 0.316 µM): 1380 nM
IC50 (second compound 1 µM): < 31.6 nM
IC50 (second compound 3.16 µM): < 31.6 nM
IC50 (second compound 10 µM): < 31.6 nM
Structure (SMILES): CC1COCCN1c1cc(C2(S(C)(=N)=O)CC2)nc(-c2ccnc3[nH]ccc23)n1 (stereo not drawn) + CNC(=O)c1ccc(Nc2nc(OC3CCCC3)c3c(-c4ccc5nc(C)oc5c4)c[nH]c3n2)c(OC)c1
viability, T/C [1]: 103%
viability, T/C [2]: 100%
viability, T/C [3]: 67.5%
viability, T/C [4]: 51.4%
viability, T/C [5]: 45%
viability, T/C [6]: 35.3%
viability, T/C [7]: 66.2%
viability, T/C [8]: 58.3%
viability, T/C [9]: 56.1%
viability, T/C [10]: 54.5%
viability, T/C [11]: 54%
viability, T/C [12]: 40%
viability, T/C [13]: 45%
viability, T/C [14]: 64.8%
viability, T/C [15]: 50.9%
viability, T/C [16]: 52.3%
viability, T/C [17]: 44.7%
viability, T/C [18]: 35.6%
viability, T/C [19]: 45.1%
viability, T/C [20]: 46.2%
viability, T/C [21]: 40.4%
viability, T/C [22]: 38.3%
viability, T/C [23]: 41.8%
viability, T/C [24]: 33.8%
viability, T/C [25]: 44.1%
viability, T/C [26]: 55.3%
viability, T/C [27]: 47.2%
viability, T/C [28]: 37.7%
viability, T/C [29]: 36.7%
viability, T/C [30]: 32%
viability, T/C [31]: 44.2%
viability, T/C [32]: 43.7%
viability, T/C [33]: 39.7%
viability, T/C [34]: 40.4%
viability, T/C [35]: 39%
viability, T/C [36]: 29.4%

Structure (SMILES): C=C(F)C(=O)N1CCN(c2nc(OCC3CCCN3C)nc3c2CCN(c2cccc4cccc(Cl)c24)C3)CC1CC#N (stereo not drawn) + CN1CCN(c2cc(C(=O)Nc3cc4cc(-c5cnn(C)c5)ccc4cn3)ccn2)CC1
IC50 (second compound 0.0316 µM): 7260 nM
IC50 (second compound 0.1 µM): 4560 nM
IC50 (second compound 0.316 µM): < 31.6 nM
IC50 (second compound 1 µM): < 31.6 nM
IC50 (second compound 3.16 µM): < 31.6 nM
IC50 (second compound 10 µM): < 31.6 nM
viability, T/C [1]: 102%
viability, T/C [2]: 80.5%
viability, T/C [3]: 98.3%
viability, T/C [4]: 108%
viability, T/C [5]: 113%
viability, T/C [6]: 30.6%
viability, T/C [7]: 64.3%
viability, T/C [8]: 67.4%
viability, T/C [9]: 64.1%
viability, T/C [10]: 62.7%
viability, T/C [11]: 87.9%
viability, T/C [12]: 8.57%
viability, T/C [13]: 35%
viability, T/C [14]: 37.6%
viability, T/C [15]: 34.7%
viability, T/C [16]: 32.2%
viability, T/C [17]: 39.1%
viability, T/C [18]: 2.52%
viability, T/C [19]: 7.05%
viability, T/C [20]: 4.72%
viability, T/C [21]: 5.61%
viability, T/C [22]: 5%
viability, T/C [23]: 5.11%
viability, T/C [24]: 1.51%
viability, T/C [25]: 6.63%
viability, T/C [26]: 4.67%
viability, T/C [27]: 7.01%
viability, T/C [28]: 6.75%
viability, T/C [29]: 3.34%
viability, T/C [30]: 0.55%
viability, T/C [31]: 1.82%
viability, T/C [32]: 2.41%
viability, T/C [33]: 3.57%
viability, T/C [34]: 3.3%
viability, T/C [35]: 0.98%
viability, T/C [36]: 1.32%
